Source: ChEMBL document CHEMBL1145395, “De novo design of selective antibiotic peptides by incorporation of unnatural amino acids” (J Med Chem, 2007)
Values after ≈ are worked out from the molar mass of the structure shown. Active and inactive are the calls of the source. The calls are words filed in the database; no cut-off is given here. Non-standard residues stand in square brackets, D forms with d. Residues, ends and D or L forms follow the SMILES beside them. ξ: configuration not given here. Pro(3ξ,4ξ-(CH2)4) = O=C(O)[C@H]1NCC2CCCCC21; Pro(3,4-benzo) = O=C(O)[C@H]1NCc2ccccc21; Tic = O=C(O)[C@@H]1Cc2ccccc2CN1; Orn = NCCC[C@H](N)C(=O)O; βAla = NCCC(=O)O

Legend:
Assay type in all cases: functional
[1] = test system: Salmonella typhimurium; test: Antibacterial activity against Salmonella Typhimurium ATCC 13311; settings: for Activity: Salmonella enterica subsp. enterica serovar Typhimurium; for MIC: Salmonella enterica
[2] = test system: Staphylococcus aureus; test: Antibacterial activity against methicillin/gentamicin/tetracycline resistant Staphylococcus aureus ATCC 33592
[3] = test system: Mycobacterium; test: Antibacterial activity against Mycobacterium ranae ATCC 110

## CSCC[C@H](NC(=O)[C@H](CC(C)C)NC(=O)[C@H](CCC(=O)O)NC(=O)[C@@H]1CCCN1C(=O)[C@@H]1C2CCCCC2CN1C(=O)[C@H](CCCCN)NC(=O)CNC(=O)[C@H](CC(C)C)NC(=O)CNC(=O)[C@@H]1CCCN1C(=O)[C@@H]1C2CCCCC2CN1C(=O)[C@H](CCCCN)NC(=O)CNC(=O)[C@H](CC(C)C)NC(=O)CNC(=O)[C@@H]1CCCN1C(=O)[C@@H]1C2CCCCC2CN1C(=O)[C@H](CCSC)NC(=O)[C@H](CCCCN)NC(=O)CN)C(=O)NCC(=O)N[C@@H](CCCNC(=N)N)C(N)=O (stereo not given in full) (H-GKM[Pro(3ξ,4ξ-(CH2)4)]PGLGK[Pro(3ξ,4ξ-(CH2)4)]PGLGK[Pro(3ξ,4ξ-(CH2)4)]PELMGR-NH2)
[1]
  Activity: inactive
[2]
  Activity: inactive

## CC[C@H](C)[C@H](NC(=O)CN)C(=O)NCC(=O)N[C@@H](CCCCN)C(=O)N[C@@H](Cc1ccccc1)C(=O)N[C@@H](CC(C)C)C(=O)N[C@@H](Cc1cnc[nH]1)C(=O)N[C@@H](CO)C(=O)N[C@@H](C)C(=O)NCC(=O)N[C@@H](CCCCN)C(=O)N[C@@H](Cc1ccccc1)C(=O)NCC(=O)N[C@@H](CCCCN)C(=O)N[C@@H](C)C(=O)N[C@@H](Cc1ccccc1)C(=O)N[C@H](C(=O)NCC(=O)N[C@@H](CCC(=O)O)C(=O)N[C@H](C(=O)N[C@@H](CCSC)C(=O)N[C@@H](CCCCN)C(=O)N[C@@H](CO)C(N)=O)[C@@H](C)CC)C(C)C [MAGAININ 1]
[1]
  MIC: 30 µM (≈ 72.3 µg/mL)

## CSCC[C@H](NC(=O)[C@H](CC(C)C)NC(=O)[C@H](CCC(=O)O)NC(=O)[C@@H]1CCCN1C(=O)[C@H](Cc1ccccc1)NC(=O)[C@H](CCCCN)NC(=O)CNC(=O)[C@H](CC(C)C)NC(=O)CNC(=O)[C@@H]1CCCN1C(=O)[C@H](Cc1ccccc1)NC(=O)[C@H](CCCCN)NC(=O)CNC(=O)[C@H](CC(C)C)NC(=O)CNC(=O)[C@@H]1CCCN1C(=O)[C@H](Cc1ccccc1)NC(=O)[C@H](CCSC)NC(=O)[C@H](CCCCN)NC(=O)CN)C(=O)NCC(=O)N[C@@H](CCCNC(=N)N)C(N)=O (H-GKMFPGLGKFPGLGKFPELMGR-NH2)
[1]
  Activity: inactive
[2]
  Activity: inactive

## CSCC[C@H](NC(=O)[C@H](CC(C)C)NC(=O)[C@H](CCC(=O)O)NC(=O)[C@@H]1Cc2ccccc2CN1C(=O)[C@H](CCCCN)NC(=O)CNC(=O)[C@H](CC(C)C)NC(=O)CNC(=O)[C@@H]1Cc2ccccc2CN1C(=O)[C@H](CCCCN)NC(=O)CNC(=O)[C@H](CC(C)C)NC(=O)CNC(=O)[C@@H]1Cc2ccccc2CN1C(=O)[C@H](CCSC)NC(=O)[C@H](CCCCN)NC(=O)CN)C(=O)NCC(=O)N[C@@H](CCCNC(=N)N)C(N)=O (H-GKM[Tic]GLGK[Tic]GLGK[Tic]ELMGR-NH2)
[1]
  Activity: inactive
[2]
  Activity: inactive

## CSCC[C@H](NC(=O)[C@H](CC(C)C)NC(=O)[C@H](CCC(=O)O)NC(=O)[C@@H]1CCCN1C(=O)[C@@H]1Cc2ccccc2CN1C(=O)[C@H](CCCCN)NC(=O)CNC(=O)[C@H](CC(C)C)NC(=O)CNC(=O)[C@@H]1CCCN1C(=O)[C@@H]1Cc2ccccc2CN1C(=O)[C@H](CCCCN)NC(=O)CNC(=O)[C@H](CC(C)C)NC(=O)CNC(=O)[C@@H]1CCCN1C(=O)[C@@H]1Cc2ccccc2CN1C(=O)[C@H](CCSC)NC(=O)[C@H](CCCCN)NC(=O)CN)C(=O)NCC(=O)N[C@@H](CCCNC(=N)N)C(N)=O (H-GKM[Tic]PGLGK[Tic]PGLGK[Tic]PELMGR-NH2)
[1]
  Activity: inactive
[2]
  Activity: inactive

## CC(C)C[C@H](NC(=O)CNC(=O)[C@H](CCCCN)NC(=O)CN)C(=O)N1Cc2ccccc2C[C@H]1C(=O)N1CC2CCCCC2[C@H]1C(=O)NCC(=O)N[C@@H](CCCCN)C(=O)N1Cc2ccccc2C[C@H]1C(=O)N1CC2CCCCC2[C@H]1C(=O)NCC(=O)N[C@@H](CC(C)C)C(=O)N1Cc2ccccc2C[C@H]1C(=O)N1CC2CCCCC2[C@H]1C(=O)NCC(=O)N[C@@H](CCCCN)C(=O)N1Cc2ccccc2C[C@H]1C(=O)N1CC2CCCCC2[C@H]1C(=O)NCC(=O)N[C@@H](CC(C)C)C(=O)N1Cc2ccccc2C[C@H]1C(=O)N1CC2CCCCC2[C@H]1C(=O)NCC(=O)N[C@@H](CCCCN)C(=O)N1Cc2ccccc2C[C@H]1C(=O)N1CC2CCCCC2[C@H]1C(=O)NCC(=O)N[C@@H](CCCCN)C(=O)N[C@@H](CCCNC(=N)N)C(N)=O (stereo not given in full) (H-GKGL[Tic][Pro(3ξ,4ξ-(CH2)4)]GK[Tic][Pro(3ξ,4ξ-(CH2)4)]GL[Tic][Pro(3ξ,4ξ-(CH2)4)]GK[Tic][Pro(3ξ,4ξ-(CH2)4)]GL[Tic][Pro(3ξ,4ξ-(CH2)4)]GK[Tic][Pro(3ξ,4ξ-(CH2)4)]GKR-NH2)
[1]
  MIC: 100 µM (≈ 347 µg/mL)
[2]
  MIC: 10 µM (≈ 34.7 µg/mL)

## CC(C)C[C@H](NC(=O)CNC(=O)[C@H](CCCCN)NC(=O)CN)C(=O)N1Cc2ccccc2C[C@H]1C(=O)N1CC2CCCCC2[C@H]1C(=O)NCC(=O)N[C@@H](CCCCN)C(=O)N1Cc2ccccc2C[C@H]1C(=O)N1CC2CCCCC2[C@H]1C(=O)NCC(=O)N[C@@H](Cc1ccccc1)C(=O)N1Cc2ccccc2C[C@H]1C(=O)N1CC2CCCCC2[C@H]1C(=O)NCC(=O)N[C@@H](CCCCN)C(=O)N1Cc2ccccc2C[C@H]1C(=O)N1CC2CCCCC2[C@H]1C(=O)NCC(=O)N[C@@H](Cc1ccccc1)C(=O)N1Cc2ccccc2C[C@H]1C(=O)N1CC2CCCCC2[C@H]1C(=O)NCC(=O)N[C@@H](CCCCN)C(=O)N1Cc2ccccc2C[C@H]1C(=O)N1CC2CCCCC2[C@H]1C(=O)NCC(=O)N[C@@H](CCCCN)C(=O)N[C@@H](CCCNC(=N)N)C(N)=O (stereo not given in full) (H-GKGL[Tic][Pro(3ξ,4ξ-(CH2)4)]GK[Tic][Pro(3ξ,4ξ-(CH2)4)]GF[Tic][Pro(3ξ,4ξ-(CH2)4)]GK[Tic][Pro(3ξ,4ξ-(CH2)4)]GF[Tic][Pro(3ξ,4ξ-(CH2)4)]GK[Tic][Pro(3ξ,4ξ-(CH2)4)]GKR-NH2)
[2]
  MIC: 10 µM (≈ 35.4 µg/mL)

## CSCC[C@H](NC(=O)[C@H](CC(C)C)NC(=O)[C@H](CCC(=O)O)NC(=O)[C@@H]1c2ccccc2CN1C(=O)[C@@H]1Cc2ccccc2CN1C(=O)[C@H](Cc1ccccc1)NC(=O)CCNC(=O)[C@@H]1c2ccccc2CN1C(=O)[C@@H]1Cc2ccccc2CN1C(=O)[C@H](CCCCN)NC(=O)CCNC(=O)[C@@H]1c2ccccc2CN1C(=O)[C@@H]1Cc2ccccc2CN1C(=O)[C@H](Cc1ccccc1)NC(=O)CCNC(=O)[C@@H]1c2ccccc2CN1C(=O)[C@@H]1Cc2ccccc2CN1C(=O)[C@H](CCCCN)NC(=O)CCNC(=O)[C@@H]1c2ccccc2CN1C(=O)[C@@H]1Cc2ccccc2CN1C(=O)[C@H](CC(C)C)NC(=O)CNC(=O)[C@H](CCCCN)NC(=O)CN)C(=O)N[C@@H](CC(N)=O)C(=O)N[C@@H](CO)C(N)=O (H-GKGL[Tic][Pro(3,4-benzo)][βAla]K[Tic][Pro(3,4-benzo)][βAla]F[Tic][Pro(3,4-benzo)][βAla]K[Tic][Pro(3,4-benzo)][βAla]F[Tic][Pro(3,4-benzo)]ELMNS-NH2)
[1]
  Activity: inactive
[2]
  Activity: inactive

## CC(C)C[C@H](NC(=O)CNC(=O)[C@H](CCCCN)NC(=O)CN)C(=O)N1Cc2ccccc2C[C@H]1C(=O)N1CC2CCCCC2[C@H]1C(=O)NCC(=O)N[C@@H](CCCNC(=N)N)C(=O)N1Cc2ccccc2C[C@H]1C(=O)N1CC2CCCCC2[C@H]1C(=O)NCC(=O)N[C@@H](Cc1ccccc1)C(=O)N1Cc2ccccc2C[C@H]1C(=O)N1CC2CCCCC2[C@H]1C(=O)NCC(=O)N[C@@H](CCCNC(=N)N)C(=O)N1Cc2ccccc2C[C@H]1C(=O)N1CC2CCCCC2[C@H]1C(=O)NCC(=O)N[C@@H](Cc1ccccc1)C(=O)N1Cc2ccccc2C[C@H]1C(=O)N1CC2CCCCC2[C@H]1C(=O)NCC(=O)N[C@@H](CCCNC(=N)N)C(=O)N1Cc2ccccc2C[C@H]1C(=O)N1CC2CCCCC2[C@H]1C(=O)NCC(=O)N[C@@H](CCCCN)C(=O)N[C@@H](CCCNC(=N)N)C(N)=O (stereo not given in full) (H-GKGL[Tic][Pro(3ξ,4ξ-(CH2)4)]GR[Tic][Pro(3ξ,4ξ-(CH2)4)]GF[Tic][Pro(3ξ,4ξ-(CH2)4)]GR[Tic][Pro(3ξ,4ξ-(CH2)4)]GF[Tic][Pro(3ξ,4ξ-(CH2)4)]GR[Tic][Pro(3ξ,4ξ-(CH2)4)]GKR-NH2)
[3]
  Activity: inactive

## CSCC[C@H](NC(=O)[C@H](CC(C)C)NC(=O)[C@H](CCC(=O)O)NC(=O)[C@@H]1CCCN1C(=O)[C@H](Cc1ccccc1)NC(=O)[C@H](CCCCN)NC(=O)CNC(=O)[C@H](CC(C)C)NC(=O)CNC(=O)[C@H](Cc1ccccc1)NC(=O)[C@H](CCC(=O)O)NC(=O)[C@H](CCCCN)NC(=O)CNC(=O)[C@H](CC(C)C)NC(=O)CNC(=O)[C@@H]1CCCN1C(=O)[C@H](Cc1ccccc1)NC(=O)[C@H](CCSC)NC(=O)[C@H](CCCCN)NC(=O)CNC(C)=O)C(=O)NCC(=O)N[C@@H](CCC(=O)O)C(=O)N[C@@H](CCCNC(=N)N)C(N)=O (Ac-GKMFPGLGKEFGLGKFPELMGER-NH2)
[1]
  Activity: inactive
[2]
  Activity: inactive

## CSCC[C@H](NC(=O)[C@H](CC(C)C)NC(=O)[C@H](CCC(=O)O)NC(=O)[C@@H]1CCCN1C(=O)[C@@H]1Cc2ccccc2CN1C(=O)[C@H](CCCCN)NC(=O)CNC(=O)[C@H](CC(C)C)NC(=O)CNC(=O)[C@@H]1C2CCCCC2CN1C(=O)[C@@H]1Cc2ccccc2CN1C(=O)[C@H](CCC(=O)O)NC(=O)[C@H](CCCCN)NC(=O)CNC(=O)[C@H](CC(C)C)NC(=O)CNC(=O)[C@@H]1C2CCCCC2CN1C(=O)[C@@H]1Cc2ccccc2CN1C(=O)[C@H](CCCCN)NC(=O)CNC(C)=O)C(=O)NCC(=O)N[C@@H](CCC(=O)O)C(=O)N[C@@H](CCCNC(=N)N)C(N)=O (stereo not given in full) (Ac-GK[Tic][Pro(3ξ,4ξ-(CH2)4)]GLGKE[Tic][Pro(3ξ,4ξ-(CH2)4)]GLGK[Tic]PELMGER-NH2)
[1]
  Activity: inactive
[2]
  Activity: inactive

## CC(C)C[C@H](NC(=O)CNC(=O)[C@H](CCCCN)NC(=O)CN)C(=O)N1Cc2ccccc2C[C@H]1C(=O)N1CC2CCCCC2[C@H]1C(=O)NCC(=O)N[C@@H](CCCN)C(=O)N1Cc2ccccc2C[C@H]1C(=O)N1CC2CCCCC2[C@H]1C(=O)NCC(=O)N[C@@H](Cc1ccccc1)C(=O)N1Cc2ccccc2C[C@H]1C(=O)N1CC2CCCCC2[C@H]1C(=O)NCC(=O)N[C@@H](CCCCN)C(=O)N1Cc2ccccc2C[C@H]1C(=O)N1CC2CCCCC2[C@H]1C(=O)NCC(=O)N[C@@H](Cc1ccccc1)C(=O)N1Cc2ccccc2C[C@H]1C(=O)N1CC2CCCCC2[C@H]1C(=O)NCC(=O)N[C@@H](CCCCN)C(=O)N1Cc2ccccc2C[C@H]1C(=O)N1CC2CCCCC2[C@H]1C(=O)NCC(=O)N[C@@H](CCCCN)C(=O)N[C@@H](CCCNC(=N)N)C(N)=O (stereo not given in full) (H-GKGL[Tic][Pro(3ξ,4ξ-(CH2)4)]G[Orn][Tic][Pro(3ξ,4ξ-(CH2)4)]GF[Tic][Pro(3ξ,4ξ-(CH2)4)]GK[Tic][Pro(3ξ,4ξ-(CH2)4)]GF[Tic][Pro(3ξ,4ξ-(CH2)4)]GK[Tic][Pro(3ξ,4ξ-(CH2)4)]GKR-NH2)
[1]
  Activity: inactive
